Data as given in PubChem BioAssay (NCI).
Where “and” joins values, the source holds several entries; their conditions need not be identical. Equal values may be shown once.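 Cells were grown in 96-well plates and exposed to each compound for 48 hours at five concentrations; endpoints were interpolated linearly between bracketing concentrations, or set to the highest concentration if not reached. GI50 is the concentration that inhibits growth by half. The concentration for full growth arrest is given as TGI.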

Legend:
Assay in all cases: NCI tumour cell line growth inhibition, 48 h
[1] = test system: RPMI-8226 leukemia
[2] = test system: K-562 leukemia
[3] = test system: MDA-MB-231 breast
[4] = test system: A498 renal
[5] = test system: UACC-62 melanoma
[6] = test system: MDA-MB-435
[7] = test system: NCI/ADR-RES ovarian
[8] = test system: UO-31 renal
[9] = test system: OVCAR-8 ovarian
[10] = test system: IGROV1 ovarian
[11] = test system: SNB-75 CNS

| SMILES | TGI [1] | TGI [2] | TGI [3] | TGI [4] | TGI [5] | TGI [6] | TGI [7] | TGI [8] | TGI [9] | TGI [10] | TGI [11] | GI50 [1] | GI50 [5] |
| --- | --- | --- | --- | --- | --- | --- | --- | --- | --- | --- | --- | --- | --- |
| N#Cc1c(-c2ccc(Cl)cc2)c(C#N)c(=O)n(NS(=O)(=O)c2ccccc2)c1-c1ccccc1 | > 25 µM | > 25 µM | > 25 µM | > 25 µM | > 25 µM | > 25 µM |  |  |  |  |  |  |  |
| NNC(=O)c1n[nH]nc1SSc1n[nH]nc1C(=O)NN |  |  | > 100 µM |  | > 100 µM | > 100 µM | > 100 µM | > 100 µM | > 100 µM | > 100 µM | > 100 µM |  |  |
| CC12ON=C(c3ccccc3)N1C=CN1C(c3ccccc3)=NOC12 (stereo unspecified) |  |  | > 100 µM |  | > 100 µM |  | > 100 µM | > 100 µM | > 100 µM | > 100 µM | > 100 µM |  |  |
| Cc1ccc2[nH]c3c(C)c4ccncc4c(C)c3c2c1 | 4.88 µM | 2.52 µM |  | 2.91 µM | 3.26 µM |  | 2.24 µM | 3.03 µM | 2.25 µM | 2.44 µM | 3.17 µM |  |  |
| CCOC(=O)CCC(NC(=O)OCc1ccccc1)C(=O)NC(CCC(=O)OCC)C(=O)NC(CCC(=O)OCC)C(=O)NC(CCC(=O)OCC)C(=O)NC(CCC(=O)OCC)C(=O)OCC (stereo unspecified) | > 100 µM |  |  |  | > 100 µM | > 100 µM | > 100 µM | > 100 µM | > 100 µM | > 100 µM | > 100 µM |  |  |
| S=C1C=C(c2ccccc2)Sc2ccccc2N1 | > 100 µM | > 100 µM | > 100 µM |  | > 100 µM |  | > 100 µM | > 100 µM | > 100 µM | > 100 µM | > 100 µM |  |  |
| COC/C=C\[C@@]1(O)CCCC[C@@H]1CC(OC)OC | 70.9 µM | > 100 µM | > 100 µM |  |  | > 76.1 µM | > 100 µM | > 96.6 µM | > 85.8 µM | > 55.6 µM | > 100 µM |  |  |
| CCCCCCCCCN1CCC(=O)C(C(=O)OC)C1 (stereo unspecified) | 49.1 µM |  |  | 52.7 µM | 24.9 µM | 28.5 µM | 26.8 µM | 22 µM | 21 µM |  | 34 µM |  |  |
| CCOC(=O)c1c(SCCO)n(-c2ccccc2)c(=S)n(-c2ccccc2)c1=O | > 100 µM | > 100 µM |  |  | > 100 µM | > 100 µM | > 100 µM | > 100 µM | > 100 µM | > 100 µM | > 100 µM |  |  |
| Nc1ccn(C2OC(COP(=O)(O)Oc3ccccc3)C(O)C2O)c(=O)n1 (stereo unspecified) | > 100 µM | > 100 µM |  | > 100 µM | > 100 µM |  | > 100 µM | > 100 µM | > 100 µM | > 100 µM | > 100 µM |  |  |
| Cc1nc(-c2nc([N+](=O)[O-])c([N+](=O)[O-])[nH]2)cs1 | > 100 µM | > 100 µM |  | > 100 µM | > 100 µM |  |  | > 100 µM |  | > 100 µM | > 100 µM |  |  |
| CC(C)(C)OC(=O)N1CCC23CCCC2C(=O)CC=C13 (stereo unspecified) |  | > 100 µM | > 100 µM |  | > 100 µM | > 100 µM | > 100 µM | > 100 µM | > 100 µM | > 100 µM | > 100 µM |  |  |
| CC(=O)Oc1c(OC(C)=O)c(-c2ccc(O)c(O)c2)c(O)c(O)c1-c1ccc(O)cc1 | > 100 µM | > 100 µM |  | > 100 µM | 45.4 µM and 75.5 µM |  | > 100 µM | > 100 µM | > 100 µM | > 100 µM | > 100 µM | 20 µM | 21.7 µM |
| Cc1ccc(/C=N/Nc2ncccn2)s1 | > 100 µM |  | > 100 µM |  | > 100 µM | > 100 µM | > 100 µM | > 100 µM | > 100 µM | > 100 µM | > 100 µM |  |  |
| CCN(CC)CCNc1ccc(C)c2sc3ccc(O)cc3c(=O)c12 | 4.95 µM | 3.62 µM |  | 4.27 µM | 2.21 µM |  |  | 3.82 µM | 3.2 µM | 5.19 µM | 4.3 µM |  |  |
| Nc1ncc(Cc2nc3ccccc3s2)s1 | > 100 µM | > 100 µM | > 100 µM |  | > 100 µM | > 100 µM | > 100 µM | > 100 µM | > 100 µM | > 100 µM | > 100 µM |  |  |
| CC(C)(C)C=C=C(C(C)(C)C)P(=O)(O)O | > 100 µM | > 100 µM |  | > 100 µM | > 100 µM | > 100 µM | > 100 µM |  | > 100 µM | > 100 µM | > 100 µM |  |  |
| COc1ccc(C)cc1NC(=S)N/N=C/c1ccc(SC)cc1 | 76.3 µM | > 100 µM |  | > 100 µM | > 100 µM | > 100 µM | > 100 µM | > 100 µM | > 100 µM | > 100 µM | > 100 µM |  |  |
| COc1nc(=O)n(C2CC(N=[N+]=[N-])C(CO)O2)cc1C (stereo unspecified) |  | > 100 µM | > 100 µM |  | > 100 µM | > 100 µM | > 100 µM | > 100 µM | > 100 µM | > 100 µM |  |  |  |
| COc1cc(CC2c3cc(OC)c(OC)cc3CCN2C)c(Oc2cc3c(cc2OC)-c2c(OC)c(OC)c(OC)c4c2C(C3)N(C)CC4)cc1OC (stereo unspecified) | > 45.7 µM | > 30.5 µM |  | 28.8 µM | 29.1 µM |  |  | 22.1 µM | 32 µM | 29.9 µM | 25 µM |  |  |
